Source: patent US20120122832A1, “METHOD OF MAKING CEFQUINOME PARTICLES” (priority 2009, published 2012)
Structures can show the parent of a compound that is named as a salt.

Assays:
[1] = Particle size distribution of ethyl oleate formulations, Malvern Master Sizer with Hydro 2000G cell, Frauenhofer method; format: physicochemical; details: Table 1, Malvern Master Sizer
Protocol: The particle size was determined with a Malvern Master Sizer GMAL 01 with the Hydro 2000G measuring cell according to Frauenhofer method.

[2] = Particle size distribution (PSD) of precipitated cefquinome sulfate particles by laser light scattering; format: physicochemical
[3] = 1 minute stirring only in the measurement equipment
[4] = 10 minutes stirring + 6 minutes of ultrasound
[5] = 10 minutes stirring only in the measurement equipment

D(0.50) [1]	D(0.90) [1]	D(100) [1]	PSD D(50) [2, 3]	PSD D(100) [2, 3]	PSD DE(90) [2, 3]	PSD D(50) [2, 4]	PSD D(100) [2, 4]	PSD DE(90) [2, 4]	PSD D(50) [2, 5]	PSD D(100) [2, 5]	PSD DE(90) [2, 5]	Compound
63.01 μm	114.75 μm	178.25 μm	–	–	–	–	–	–	–	–	–	CO/N=C(\C(=O)N[C@@H]1C(=O)N2C(C(=O)[O-])=C(C[n+]3cccc4c3CCCC4)CS[C@H]12)c1csc(N)n1 [prior art non micronized material, cefquinome sulphate]
–	–	–	4.78 μm	239.9 μm	66.97 μm	0.15 μm	5.01 μm	1.98 μm	3.34 μm	11.48 μm	5.95 μm	CO/N=C(\C(=O)N[C@@H]1C(=O)N2C(C(=O)[O-])=C(C[n+]3cccc4c3CCCC4)CS[C@H]12)c1csc(N)n1 [Example 8, Cefquinome sulfate]
